The assay has as its system human elastin promoter. Kind of assay: human elastin promoter activity by CAT assay in transgenic mouse fibroblast cultures exposed to hypoxanthine/xanthine oxidase. It is filed as cell-based. The conditions noted are these: 10,000 U/ml catalase added just prior to hypoxanthine and xanthine oxidase exposure. From the text:
Fibroblasts derived from the skin of a homozygous line of transgenic mice expressing the 5.2-kb human elastin promoter, linked to a CAT reporter gene which enables measurement of elastin promoter activation, as previously described (Bernstein et al. J Invest Dermatol 105, 269-273, 1995; and Bernstein et al. Photochem Photobiol 64:369-74, 1996) were utilized. Although phenotypically normal, these mice express the human elastin promoter when assayed for CAT activity (Hsu-Wong et al. J. Biol. Chem. 269: 18072-18075, 1994; Bernstein et al. J Invest Dermatol 105, 269-273, 1995; and Bernstein et al. Photochem Photobiol 64:369-74, 1996). […]
DMEM with 10% FCS was removed, cells were rinsed in phosphate buffered saline (PBS), and DMEM was replaced without the addition of FCS. […] The optimum time span for incubation of cells with hypoxanthine/xanthine oxidase was determined by exposing cells to hypoxanthine/xanthine oxidase for 15, 30, 60, 90 and 120 minutes and determining CAT activity as outlined in Example 3. […]
To measure the expression of the human elastin promoter/CAT reporter gene construct in the skin of transgenic mice and in fibroblast cultures established from these animals, CAT activity was determined. […]

Take catalase: the “effect on the hypoxanthine/xanthine oxidase-induced increase in elastin promoter activity” value is on record as “fully eliminated this increase”. Where the note is “90 minutes”, the “human elastin promoter activity (CAT assay), fold of untreated controls (mean±sem)” value was found to be 1.0±0.1 fold.
